Patent publication US12371454B2, “Cyclic peptide compound having Kras inhibitory action” (priority 2019, dated 2025)
Starred links: 1 amine or outer side, 2 acyl side, 3 side chain; linkers in the order of their positions; H or OH if unused. Positions of bridges follow the written chain, without caps; N, C: chain ends. Non-standard residues stand in square brackets, D forms with d. Residues, ends and D or L forms follow the SMILES beside them. *: point of attachment. NMeAbu(3,3-F2-piperidino) = CN[C@@H](CCN1CCCC(F)(F)C1)C(=O)O; hPhe(3-Cl-4-CF3) = N[C@@H](CCc1ccc(C(F)(F)F)c(Cl)c1)C(=O)O; hPhe(4-CF3) = N[C@@H](CCc1ccc(C(F)(F)F)cc1)C(=O)O; Phe(3-CF3) = N[C@@H](Cc1cccc(C(F)(F)F)c1)C(=O)O; Phe(4-CF3) = N[C@@H](Cc1ccc(C(F)(F)F)cc1)C(=O)O; X17 = Cc1cncc(C[C@@H](C(=O)[*:2])N(C)[*:1])c1; NMePhe(4-Cl) = CN[C@@H](Cc1ccc(Cl)cc1)C(=O)O; NMePhe(2-CN) = CN[C@@H](Cc1ccccc1C#N)C(=O)O; NMePhe(4-Me) = CN[C@@H](Cc1ccc(C)cc1)C(=O)O; NMedβ3hAla = C[C@H](CC(=O)[*:2])N(C)[*:1]; NMeGly(cPent) = CN[C@H](C(=O)O)C1CCCC1; Phe(3-I) = N[C@@H](Cc1cccc(I)c1)C(=O)O; Pro(4,4-F2) = O=C(O)[C@@H]1CC(F)(F)CN1; X26 = O=C([C@@H]1CCC[C@H]1N[*:1])[*:2]; NMeCha = CN[C@@H](CC1CCCCC1)C(=O)O; NMeChg = CN[C@H](C(=O)O)C1CCCCC1; NMeF = CN[C@@H](Cc1ccccc1)C(=O)O; NMeI = CC[C@H](C)[C@H](NC)C(=O)O; NMeβAla = CN(CCC(=O)[*:2])[*:1]; NMeD = CN[C@@H](CC(=O)O)C(=O)O; NMeL = CN[C@@H](CC(C)C)C(=O)O; NMeV = CN[C@H](C(=O)O)C(C)C; Pip = O=C(O)[C@@H]1CCCCN1; dPip = O=C(O)[C@H]1CCCCN1; NMeA = CN[C@@H](C)C(=O)O; NMeAib = CNC(C)(C)C(=O)O; Nle = CCCC[C@H](N)C(=O)O; Piperidide = C1CCN(*)CC1; Pyrrolidide = C1CCN(*)C1; dNMeA = CN[C@H](C)C(=O)O; Ac5c = NC1(C(=O)O)CCCC1; Aze = O=C(O)[C@@H]1CCN1; Ac4c = NC1(C(=O)O)CCC1; Sar = CNCC(=O)O

Target: T1, Kras and SOS1 (biotin-tagged human Kras loaded with GDP, His-tagged human SOS1) (Homo sapiens, UniProt P01116, G12D)
T1 construct: made in house; host or cells: E. coli (stated for Kras only)
T1 sequence (P01116 1-188 isoform P01116-2 G12D): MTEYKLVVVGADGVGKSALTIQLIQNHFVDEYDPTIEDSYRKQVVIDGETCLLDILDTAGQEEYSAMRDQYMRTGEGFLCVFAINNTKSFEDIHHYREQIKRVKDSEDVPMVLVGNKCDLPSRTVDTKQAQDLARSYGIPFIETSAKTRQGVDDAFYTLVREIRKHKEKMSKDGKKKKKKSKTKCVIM
Assay: Protein-protein interaction inhibition between Kras and SOS1 (KrasGl2D-SOS PPI) using AlphaScreen
Type: binding
Settings: AlphaScreen; biotin-tagged human Kras loaded with GDP, His-tagged human SOS1; read-out: KRAS G12D-SOS PPI IC50
In short: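 Binding between SOS1 and Kras is detected as bead-proximity luminescence: illuminate Ni-conjugated donors (680 nm), collect 520-620 nm emission from streptavidin-conjugated acceptors; Kras carries biotin and GDP loaded after purification, SOS1 carries a His tag.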

Row | Structure (SMILES) | IC50 [nM]
1 | CC[C@H](C)[C@@H]1NC(=O)[C@H](CC(C)C)N(C)C(=O)C[C@@H](C(=O)N2CCCCC2)N(C)C(=O)[C@H](CC(C)C)NC(=O)C(C)(C)N(C)C(=O)[C@H](Cc2ccc(C(F)(F)F)cc2)NC(=O)[C@H](Cc2cccc(I)c2)NC(=O)CN(C)C(=O)[C@H](CC2CCCCC2)N(C)C(=O)CN(C)C(=O)CN(C)C1=O [Compound 336] ([NMeL]I[Sar][Sar][NMeCha][Sar][Phe(3-I)][Phe(4-CF3)][NMeAib]L[NMeD]-Piperidide; lactam N-11) | 93
2 | CC[C@H](C)[C@@H]1NC(=O)[C@H](CC(C)C)N(C)C(=O)C[C@@H](C(=O)N2CCCCC2)N(C)C(=O)[C@H](C2CCCCC2)N(C)C(=O)C2(CCCC2)NC(=O)[C@H](Cc2cncc(C)c2)N(C)C(=O)[C@H](CCc2ccc(C(F)(F)F)c(Cl)c2)NC(=O)CN(C)C(=O)[C@H](CC2CCCCC2)N(C)C(=O)[C@@H]2CCN2C(=O)[C@H](C)N(C)C1=O [Compound 338] ([NMeL]I[NMeA][Aze][NMeCha][Sar][hPhe(3-Cl-4-CF3)][X17][Ac5c][NMeChg][NMeD]-Piperidide; lactam N-11) | 220
3 | CC[C@H](C)[C@@H]1NC(=O)[C@H](CC(C)C)N(C)C(=O)[C@@H]2CCC[C@H]2NC(=O)[C@H](C(C)C)N(C)C(=O)C2(CCCC2)NC(=O)[C@@H]2CCCN2C(=O)[C@H](CCc2ccc(C(F)(F)F)c(Cl)c2)NC(=O)CN(C)C(=O)[C@H](CC2CCCCC2)N(C)C(=O)CN(C)C(=O)CN(C)C1=O [Compound 347] (cyclo([Ac5c][NMeV][X26][NMeL]I[Sar][Sar][NMeCha][Sar][hPhe(3-Cl-4-CF3)]P)) | 27
4 | CC[C@H](C)[C@@H]1NC(=O)[C@H](C)N(C)C(=O)C[C@@H](C(=O)N2CCCCC2)N(C)C(=O)[C@H](C(C)C)N(C)C(=O)C2(CCCC2)NC(=O)[C@@H]2CCCN2C(=O)[C@H](CCc2ccc(C(F)(F)F)c(Cl)c2)NC(=O)[C@H]2CCCCN2C(=O)[C@H](CC2CCCCC2)N(C)C(=O)[C@@H]2CCN2C(=O)[C@H](C)N(C)C1=O [Compound 349] ([NMeA]I[NMeA][Aze][NMeCha][dPip][hPhe(3-Cl-4-CF3)]P[Ac5c][NMeV][NMeD]-Piperidide; lactam N-11) | 190
5 | CCCC[C@@H]1NC(=O)[C@H](CCc2ccc(C(F)(F)F)c(Cl)c2)NC(=O)CN(C)C(=O)[C@H](Cc2ccc(Cl)cc2)N(C)C(=O)[C@@H]2CCN2C(=O)CN(C)C(=O)[C@H]([C@@H](C)CC)NC(=O)[C@@H]2CCCCN2C(=O)C[C@@H](C(=O)N2CCCCC2)N(C)C(=O)[C@H](CC(C)C)NC(=O)C(C)(C)N(C)C1=O [Compound 352] ([Pip]I[Sar][Aze][NMePhe(4-Cl)][Sar][hPhe(3-Cl-4-CF3)][Nle][NMeAib]L[NMeD]-Piperidide; lactam N-11) | 5.5
6 | CC[C@H](C)[C@@H]1NC(=O)[C@H](CC(C)C)N(C)C(=O)C[C@@H](C)N(C)C(=O)[C@H](C(C)C)N(C)C(=O)C2(CCCC2)NC(=O)[C@@H]2CCCN2C(=O)[C@H](CCc2ccc(C(F)(F)F)c(Cl)c2)NC(=O)CN(C)C(=O)[C@H](Cc2ccccc2C#N)N(C)C(=O)CN(C)C(=O)CN(C)C1=O [Compound 357] (cyclo([Ac5c][NMeV][NMedβ3hAla][NMeL]I[Sar][Sar][NMePhe(2-CN)][Sar][hPhe(3-Cl-4-CF3)]P)) | 22
7 | CC[C@H](C)[C@@H]1NC(=O)[C@H](CC(C)C)N(C)C(=O)C[C@@H](C)N(C)C(=O)[C@H](C2CCCC2)N(C)C(=O)C2(CCC2)NC(=O)[C@@H]2CC(F)(F)CN2C(=O)[C@H](CCc2ccc(C(F)(F)F)c(Cl)c2)NC(=O)CN(C)C(=O)[C@H](Cc2ccc(C)cc2)N(C)C(=O)CN(C)C(=O)CN(C)C1=O [Compound 359] (cyclo([Ac4c][NMeGly(cPent)][NMedβ3hAla][NMeL]I[Sar][Sar][NMePhe(4-Me)][Sar][hPhe(3-Cl-4-CF3)][Pro(4,4-F2)])) | 3.2
8 | CC[C@H](C)[C@@H]1NC(=O)[C@H](CC(C)C)N(C)C(=O)C[C@@H](C(=O)N(C)C)N(C)C(=O)[C@H](C2CCCC2)N(C)C(=O)C2(CCCC2)NC(=O)[C@@H]2CCCN2C(=O)[C@H](CCc2ccc(C(F)(F)F)c(Cl)c2)NC(=O)CN(C)C(=O)[C@H](Cc2ccc(C)cc2)N(C)C(=O)[C@@H]2CCN2C(=O)[C@H](C)NC1=O [Compound 363, (5S,8S,11S,15S,18S,23aS,29S,35S,37aS)-8-((S)-sec-butyl)-29-(3-chloro-4-(trifluoromethyl)phenethyl)-18-cyclopentyl-11-isobutyl-N,N,5,12,16,19,33,36-octamethyl-35-(4-methylbenzyl)-4,7,10,13,17,20,23,28,31,34,37-undecaoxotetratriacontahydro-2H,4H-spiro[azeto[2,1-u]pyrrolo[2,1-i][1,4,7,10,13,16,19,22,25,28,31]undecaazacyclotetratriacontine-21,1′-cyclopentane]-15-carboxamide] ([NMeL]IA[Aze][NMePhe(4-Me)][Sar][hPhe(3-Cl-4-CF3)]P[Ac5c][NMeGly(cPent)][NMeD]-NMe2; lactam N-11) | 0.65
9 | CC[C@H](C)[C@@H]1NC(=O)[C@H](CC(C)C)NC(=O)C[C@@H](C(=O)N2CCCCC2)N(C)C(=O)[C@H](C(C)C)N(C)C(=O)C2(CCCC2)NC(=O)[C@@H]2CCCN2C(=O)[C@H](CCc2ccc(C(F)(F)F)c(Cl)c2)NC(=O)CN(C)C(=O)[C@H](CC2CCCCC2)N(C)C(=O)[C@@H]2CCN2C(=O)[C@H](C)N(C)C1=O [Compound 368] (LI[NMeA][Aze][NMeCha][Sar][hPhe(3-Cl-4-CF3)]P[Ac5c][NMeV][NMeD]-Piperidide; lactam N-11) | 2.7
10 | CC[C@H](C)[C@@H]1NC(=O)CCN(C)C(=O)CN(C)C(=O)[C@H](C2CCCC2)N(C)C(=O)C2(CCCC2)NC(=O)[C@@H]2CCCN2C(=O)[C@H](CCc2ccc(C(F)(F)F)c(Cl)c2)NC(=O)CN(C)C(=O)[C@H](CC2CCCCC2)N(C)C(=O)CN(C)C(=O)CN(C)C1=O [Compound 369] (cyclo([Ac5c][NMeGly(cPent)][Sar][NMeβAla]I[Sar][Sar][NMeCha][Sar][hPhe(3-Cl-4-CF3)]P)) | 350
11 | CC[C@H](C)[C@@H]1NC(=O)[C@H](C)N(C)C(=O)C[C@@H](C(=O)N2CCCC2)NC(=O)[C@H](CC(C)C)NC(=O)[C@H](Cc2ccccc2)N(C)C(=O)[C@H](CC(C)C)NC(=O)[C@H](CCc2ccc(C(F)(F)F)cc2)NC(=O)CN(C)C(=O)[C@H](Cc2ccc(Cl)cc2)N(C)C(=O)CN(C)C(=O)CN(C)C1=O [Compound 372] ([NMeA]I[Sar][Sar][NMePhe(4-Cl)][Sar][hPhe(4-CF3)]L[NMeF]LD-Pyrrolidide; lactam N-11) | 130
12 | CC[C@H](C)[C@@H]1NC(=O)[C@H](CC(C)C)N(C)C(=O)C[C@@H](C)N(C)C(=O)[C@H](C2CCCCC2)N(C)C(=O)C2(CCC2)NC(=O)[C@@H]2CC(F)(F)CN2C(=O)[C@H](CCc2ccc(C(F)(F)F)c(Cl)c2)NC(=O)CN(C)C(=O)[C@H](Cc2ccc(C)cc2)N(C)C(=O)CN(C)C(=O)CN(C)C1=O [Compound 375] (cyclo([Ac4c][NMeChg][NMedβ3hAla][NMeL]I[Sar][Sar][NMePhe(4-Me)][Sar][hPhe(3-Cl-4-CF3)][Pro(4,4-F2)])) | 12
13 | CC[C@H](C)[C@@H]1NC(=O)[C@H](CC(C)C)N(C)C(=O)C[C@@H](C(=O)N2CCCCC2)N(C)C(=O)[C@H](CC(C)C)NC(=O)C(C)(C)N(C)C(=O)[C@H](Cc2cccc(C(F)(F)F)c2)NC(=O)[C@H](Cc2cccc(I)c2)NC(=O)CN(C)C(=O)[C@H](Cc2ccc(C)cc2)N(C)C(=O)CN(C)C(=O)CN(C)C1=O [Compound 376] ([NMeL]I[Sar][Sar][NMePhe(4-Me)][Sar][Phe(3-I)][Phe(3-CF3)][NMeAib]L[NMeD]-Piperidide; lactam N-11) | 44
14 | CC[C@H](C)[C@@H]1NC(=O)[C@H](CC(C)C)N(C)C(=O)C[C@@H](C(=O)N(C)C)N(C)C(=O)[C@H]([C@@H](C)CC)N(C)C(=O)C2(CCCC2)NC(=O)[C@H](C)N(C)C(=O)[C@H](CCc2ccc(C(F)(F)F)c(Cl)c2)NC(=O)CN(C)C(=O)[C@H](Cc2ccc(C)cc2)N(C)C(=O)[C@@H]2CCN2C(=O)[C@H](C)N(C)C1=O [Compound 378, (3S,6S,9S,13S,16S,22S,25S,31S,34S)-25-[2-[3-chloro-4-(trifluoromethyl)phenyl]ethyl]-9-isobutyl-N,N,3,4,10,14,17,22,23,29,32-undecamethyl-6,16-bis[(1S)-1-methylpropyl]-2,5,8,11,15,18,21,24,27,30,33-undecaoxo-31-(p-tolylmethyl)spiro[1,4,7,10,14,17,20,23,26,29,32-undecazabicyclo[32.2.0]hexatriacontane-19,1′-cyclopentane]-13-carboxamide] ([NMeL]I[NMeA][Aze][NMePhe(4-Me)][Sar][hPhe(3-Cl-4-CF3)][NMeA][Ac5c][NMeI][NMeD]-NMe2; lactam N-11) | 0.68
15 | CC[C@H](C)[C@@H]1NC(=O)[C@H](CC(C)C)N(C)C(=O)C[C@@H](C(=O)N(C)C)N(C)C(=O)[C@H]([C@@H](C)CC)N(C)C(=O)[C@H](C(C)C)NC(=O)[C@H](CCN2CCCC(F)(F)C2)N(C)C(=O)[C@H](CCc2ccc(C(F)(F)F)c(Cl)c2)NC(=O)CN(C)C(=O)[C@H](Cc2ccc(C)cc2)N(C)C(=O)[C@@H]2CCN2C(=O)[C@H](C)N(C)C1=O [Compound 379] ([NMeL]I[NMeA][Aze][NMePhe(4-Me)][Sar][hPhe(3-Cl-4-CF3)][NMeAbu(3,3-F2-piperidino)]V[NMeI][NMeD]-NMe2; lactam N-11) | 13
16 | CC[C@H](C)[C@@H]1NC(=O)[C@H](C)N(C)C(=O)C[C@@H](C(=O)N2CCCCC2)N(C)C(=O)[C@H](C(C)C)N(C)C(=O)C2(CCCC2)NC(=O)[C@@H]2CCCN2C(=O)[C@H](CCc2ccc(C(F)(F)F)c(Cl)c2)NC(=O)[C@@H](C)N(C)C(=O)[C@H](CC2CCCCC2)N(C)C(=O)CN(C)C(=O)CN(C)C1=O [Compound 380] ([NMeA]I[Sar][Sar][NMeCha][dNMeA][hPhe(3-Cl-4-CF3)]P[Ac5c][NMeV][NMeD]-Piperidide; lactam N-11) | 5.6
